Experimental data taken from ChEMBL document CHEMBL1130729, “Synthesis and transporter binding properties of (R)-2 beta, 3 beta- and (R)-2 alpha, 3 alpha-diaryltropanes” (Bioorg Med Chem Lett, 1998).

Legend:
[1] = molecular target: Sodium-dependent serotonin transporter (Rattus norvegicus, UniProt P31652); assay: Inhibitory activity against radioligand [3H]paroxetine binding at the serotonin transporter
[2] = molecular target: Sodium-dependent dopamine transporter (Rattus norvegicus, UniProt P23977); assay: Inhibitory activity against radioligand [3H]WIN-35428 binding at the dopamine transporter
Sodium-dependent dopamine transporter, sequence (P23977 whole entry): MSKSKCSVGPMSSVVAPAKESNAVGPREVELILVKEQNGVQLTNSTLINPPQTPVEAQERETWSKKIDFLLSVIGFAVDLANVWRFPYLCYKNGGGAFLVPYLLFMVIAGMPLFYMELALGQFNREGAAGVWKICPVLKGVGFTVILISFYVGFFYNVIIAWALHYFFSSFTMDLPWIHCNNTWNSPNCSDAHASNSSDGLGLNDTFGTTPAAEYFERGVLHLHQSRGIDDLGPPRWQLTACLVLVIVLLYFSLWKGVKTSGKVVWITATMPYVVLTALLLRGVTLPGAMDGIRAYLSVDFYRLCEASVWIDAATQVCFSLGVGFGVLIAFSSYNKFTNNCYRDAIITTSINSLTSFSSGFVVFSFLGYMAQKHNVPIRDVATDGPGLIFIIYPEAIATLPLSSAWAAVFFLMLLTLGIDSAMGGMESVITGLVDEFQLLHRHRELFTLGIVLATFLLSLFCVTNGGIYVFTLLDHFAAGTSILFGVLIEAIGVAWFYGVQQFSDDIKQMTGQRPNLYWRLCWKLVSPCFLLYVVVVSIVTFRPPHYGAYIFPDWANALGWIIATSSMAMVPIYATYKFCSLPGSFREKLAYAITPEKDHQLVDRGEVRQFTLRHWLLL

[3] = molecular target: Norepinephrine transporter (Rattus norvegicus, UniProt Q9WTR4); assay: Inhibitory activity against radioligand [3H]nisoxetine binding at the norepinephrine transporter
Norepinephrine transporter, sequence (Q9WTR4 whole entry): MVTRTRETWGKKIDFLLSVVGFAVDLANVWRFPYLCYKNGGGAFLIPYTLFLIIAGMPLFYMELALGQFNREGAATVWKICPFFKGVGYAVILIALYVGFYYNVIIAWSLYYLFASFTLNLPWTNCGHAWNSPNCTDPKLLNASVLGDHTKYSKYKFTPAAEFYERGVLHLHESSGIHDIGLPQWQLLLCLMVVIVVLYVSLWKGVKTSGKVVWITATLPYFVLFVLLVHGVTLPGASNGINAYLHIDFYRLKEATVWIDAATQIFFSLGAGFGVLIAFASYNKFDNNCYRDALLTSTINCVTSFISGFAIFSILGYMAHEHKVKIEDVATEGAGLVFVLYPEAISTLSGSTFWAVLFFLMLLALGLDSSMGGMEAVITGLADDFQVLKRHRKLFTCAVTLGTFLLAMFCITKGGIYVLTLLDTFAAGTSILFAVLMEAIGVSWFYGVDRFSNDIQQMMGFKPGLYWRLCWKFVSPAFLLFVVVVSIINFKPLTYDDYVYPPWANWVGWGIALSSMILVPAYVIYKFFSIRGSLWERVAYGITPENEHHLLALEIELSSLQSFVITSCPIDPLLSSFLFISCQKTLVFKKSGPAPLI

Sodium-dependent serotonin transporter, sequence (P31652 whole entry): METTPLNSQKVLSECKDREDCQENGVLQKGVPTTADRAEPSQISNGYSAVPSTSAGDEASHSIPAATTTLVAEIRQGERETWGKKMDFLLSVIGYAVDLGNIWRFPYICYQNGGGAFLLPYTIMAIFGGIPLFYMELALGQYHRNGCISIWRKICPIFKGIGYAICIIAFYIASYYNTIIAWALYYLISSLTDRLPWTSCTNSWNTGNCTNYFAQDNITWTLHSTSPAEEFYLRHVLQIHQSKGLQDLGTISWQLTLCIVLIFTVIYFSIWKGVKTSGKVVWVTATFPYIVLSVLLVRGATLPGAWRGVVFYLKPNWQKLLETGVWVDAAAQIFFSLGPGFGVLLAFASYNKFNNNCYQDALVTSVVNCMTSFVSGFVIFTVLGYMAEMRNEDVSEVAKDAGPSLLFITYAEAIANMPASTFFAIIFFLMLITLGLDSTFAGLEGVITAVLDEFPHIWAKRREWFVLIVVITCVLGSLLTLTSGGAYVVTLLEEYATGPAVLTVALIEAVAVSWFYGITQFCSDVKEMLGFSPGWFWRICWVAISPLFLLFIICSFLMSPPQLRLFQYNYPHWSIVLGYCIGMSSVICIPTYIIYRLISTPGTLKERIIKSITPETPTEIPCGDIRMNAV

Compound	IC50 [1] [nM]	IC50 [2] [nM]	IC50 [3] [nM]
CN1C2CC[C@@H]1C[C@@H](c1ccccc1)[C@@H]2c1ccccc1 (single isomer, unassigned; form 1)	21100	12.6	917
Cc1ccc(C2C[C@H]3CCC(C2c2ccccc2)N3C)cc1 (stereo in doubt; (R)-3b)	11000	1.96	479
CN1[C@@H]2CC[C@H]1C(c1ccccc1)C(c1ccccc1)C2 (mixture of isomers; form 2)	186000		2770
CN1[C@@H]2CC[C@H]1C(c1ccccc1)C(c1ccccc1)C2 (mixture of isomers; form 1)	34700	28	2670
CN1C2CC[C@@H]1C[C@@H](c1ccccc1)[C@@H]2c1ccccc1 (single isomer, unassigned; form 2)	41300	690	1040
Cc1ccc(C2C[C@H]3CCC(C2c2ccccc2)N3C)cc1 (stereo in doubt; (R)-4b)	15800	429	4850
